Results on 19 molecules are retold here after patent US20260217673A1, “NOVEL COMPOUND AS RON INHIBITOR” (LG CHEM, LTD., priority 2022, published 2026).

Structures are written as SMILES. Where only a bound is given, the exact number is not on record here.

In experiment [1] the target is RON (Homo sapiens, UniProt Q04912). The experiment is described as follows: RON inhibitory activity, TR-FRET kinase assay. The format is biochemical. Particulars: RON protein, ULight-labeled Poly GT substrate. As for the experimental part:
To measure the RON inhibitory activity of the example compounds, the IC50 of the compounds was measured using time-resolved fluorescence energy transfer (TR-FRET).
Specifically, the compound was prepared at a concentration of 1 mM with 100% DMSO and serially diluted 10 times through 3-fold dilution. 2 μl of the serially diluted compound was added to a 96-well plate containing 48 μl of 1× kinase reaction buffer (50 mM HEPES (pH 7.4), 0.01% Tween-20, 5 mM DTT, 0.5 mM Na3VO4, 2 mM EGTA, 10 mM MgCl2).
The RON protein was diluted with a RON storage buffer (50 mM Tris-HCl (pH 7.5), 150 mM NaCl, 0.5 mM EDTA, 0.02% Triton X-100) to a concentration of 49.3 nM, and then diluted again with 1× kinase reaction buffer to be 0.4 nM. As a substrate cocktail, a RON-specific substrate mixture (40 μM ULight-labeled Poly GT, 100 nM ATP) was prepared at a concentration twice the final reaction concentration.
(§1) After that, a 384-well plate was prepared, and 2.5 μl of the diluted example compound was added to each of the experimental group wells, and 2.5 μl of a 4% DMSO solution was dispensed into high control wells and low control wells.
(§2) Afterward, 2.5 μl of 0.4 nM RON was dispensed into the high control wells and the experimental group wells, and 2.5 μl of 1× kinase reaction buffer was added to the low control wells, and after centrifugation at 1000 RPM for 40 seconds at room temperature, the mixtures were incubated at room temperature for 20 to 30 minutes. Then, 5 μl of the substrate cocktail (2×) was dispensed into all wells, and after centrifugation at 1000 RPM for 40 seconds at room temperature, the mixtures were incubated at room temperature for 60 minutes. Afterward, 5 μl of 30 mM EDTA was added to all wells to terminate the reaction, and the mixtures were incubated again at room temperature for 5 minutes. Thereafter, 5 μl of 4× phosphotyrosine antibodies (Perkin Elmer) containing europium was added to all wells and incubated at room temperature for 60 minutes. After the incubation, the 384-well-plate was read with a Vison plate reader. At this time, the excitation wavelength was 340 nm, and the emission wavelengths were 620 nm and 665 nm. The IC50 value of each example compound was derived using the GraphPd Prism7 program.
(In general: In TR-FRET formats the signal depends on donor and acceptor labels being close together.)

Experiment [2] has as its target cMET (Homo sapiens, UniProt P08581). The experiment is described as follows: MET (cMET) enzyme inhibitory activity, TR-FRET kinase assay. The format is biochemical. Particulars: cMET protein, TK peptide substrate. As for the experimental part:
In addition, to measure cMET enzyme activity inhibition, an experiment was performed by the same method as the experiment for measuring the RON enzyme activity inhibition.
Specifically, the compound was prepared at a concentration of 1 mM with 100% DMSO and serially diluted 10 times through 3-fold dilution. 2 μl of the serially diluted compound was added to a 96-well plate containing 48 μl 1× kinase reaction buffer (50 mM HEPES (pH 7.4), 0.05% BSA, 0.005% Tween-20, 1 mM DTT, 0.5 mM MnCl2, 20 mM MgCl2).
The cMET protein was diluted in a cMET storage buffer (50 mM Tris-HCl (pH 7.5), 150 mM NaCl, 0.05% Brij35, 1 mM DTT, 10% glycerol) to a concentration of 263 nM, and then diluted again with 1× kinase reaction buffer to 2 nM. As a substrate cocktail, a MET-specific substrate mixture (5 μM TK peptide, 10 mM ATP) was prepared at a concentration twice the final reaction concentration.
as §1
as §2, with “μl of 2 nM cMET” for “μl of 0.4 nM RON”, “2 nM cMET was dispensed” for “0.4 nM RON was dispensed”, “was dispensed to the high” for “was dispensed into the high”, “μl of 90 mM EDTA” for “μl of 30 mM EDTA”

Sequence of cMET (P08581 25-1390): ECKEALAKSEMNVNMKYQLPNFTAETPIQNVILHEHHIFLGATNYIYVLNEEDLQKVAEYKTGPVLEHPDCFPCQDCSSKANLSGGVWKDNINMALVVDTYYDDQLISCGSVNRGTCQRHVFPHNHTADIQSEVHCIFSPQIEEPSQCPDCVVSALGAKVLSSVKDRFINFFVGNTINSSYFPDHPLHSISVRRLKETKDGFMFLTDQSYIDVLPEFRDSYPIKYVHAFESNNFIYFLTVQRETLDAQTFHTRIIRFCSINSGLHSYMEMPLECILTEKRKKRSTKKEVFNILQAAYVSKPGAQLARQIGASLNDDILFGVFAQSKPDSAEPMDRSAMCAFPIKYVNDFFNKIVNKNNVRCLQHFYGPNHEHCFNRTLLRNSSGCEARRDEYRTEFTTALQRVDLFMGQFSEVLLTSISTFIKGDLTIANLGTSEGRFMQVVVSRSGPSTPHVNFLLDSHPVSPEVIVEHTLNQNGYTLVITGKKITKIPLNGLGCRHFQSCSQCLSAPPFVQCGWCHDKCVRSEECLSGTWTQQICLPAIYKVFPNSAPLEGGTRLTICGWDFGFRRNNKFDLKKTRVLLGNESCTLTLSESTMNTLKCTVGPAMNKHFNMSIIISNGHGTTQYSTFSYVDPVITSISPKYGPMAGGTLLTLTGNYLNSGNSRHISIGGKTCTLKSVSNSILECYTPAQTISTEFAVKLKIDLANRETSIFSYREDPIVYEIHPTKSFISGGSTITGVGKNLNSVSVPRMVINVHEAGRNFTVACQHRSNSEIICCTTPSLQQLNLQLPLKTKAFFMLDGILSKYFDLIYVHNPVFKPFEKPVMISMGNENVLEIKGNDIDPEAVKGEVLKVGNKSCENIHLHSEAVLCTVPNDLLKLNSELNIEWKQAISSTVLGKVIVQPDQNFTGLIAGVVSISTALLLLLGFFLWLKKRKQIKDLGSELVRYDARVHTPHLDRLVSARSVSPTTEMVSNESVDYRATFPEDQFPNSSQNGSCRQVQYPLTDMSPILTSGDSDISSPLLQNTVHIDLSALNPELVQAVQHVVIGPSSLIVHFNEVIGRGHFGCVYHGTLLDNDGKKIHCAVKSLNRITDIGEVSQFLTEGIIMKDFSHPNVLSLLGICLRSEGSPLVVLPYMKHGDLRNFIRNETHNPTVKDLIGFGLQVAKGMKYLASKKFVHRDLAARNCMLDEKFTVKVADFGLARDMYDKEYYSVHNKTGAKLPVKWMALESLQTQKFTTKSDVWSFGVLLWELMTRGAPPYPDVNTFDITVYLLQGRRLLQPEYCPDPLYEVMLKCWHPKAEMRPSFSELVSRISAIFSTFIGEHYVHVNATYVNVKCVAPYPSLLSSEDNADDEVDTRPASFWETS
Sequence of RON (Q04912 25-1400, species assumed): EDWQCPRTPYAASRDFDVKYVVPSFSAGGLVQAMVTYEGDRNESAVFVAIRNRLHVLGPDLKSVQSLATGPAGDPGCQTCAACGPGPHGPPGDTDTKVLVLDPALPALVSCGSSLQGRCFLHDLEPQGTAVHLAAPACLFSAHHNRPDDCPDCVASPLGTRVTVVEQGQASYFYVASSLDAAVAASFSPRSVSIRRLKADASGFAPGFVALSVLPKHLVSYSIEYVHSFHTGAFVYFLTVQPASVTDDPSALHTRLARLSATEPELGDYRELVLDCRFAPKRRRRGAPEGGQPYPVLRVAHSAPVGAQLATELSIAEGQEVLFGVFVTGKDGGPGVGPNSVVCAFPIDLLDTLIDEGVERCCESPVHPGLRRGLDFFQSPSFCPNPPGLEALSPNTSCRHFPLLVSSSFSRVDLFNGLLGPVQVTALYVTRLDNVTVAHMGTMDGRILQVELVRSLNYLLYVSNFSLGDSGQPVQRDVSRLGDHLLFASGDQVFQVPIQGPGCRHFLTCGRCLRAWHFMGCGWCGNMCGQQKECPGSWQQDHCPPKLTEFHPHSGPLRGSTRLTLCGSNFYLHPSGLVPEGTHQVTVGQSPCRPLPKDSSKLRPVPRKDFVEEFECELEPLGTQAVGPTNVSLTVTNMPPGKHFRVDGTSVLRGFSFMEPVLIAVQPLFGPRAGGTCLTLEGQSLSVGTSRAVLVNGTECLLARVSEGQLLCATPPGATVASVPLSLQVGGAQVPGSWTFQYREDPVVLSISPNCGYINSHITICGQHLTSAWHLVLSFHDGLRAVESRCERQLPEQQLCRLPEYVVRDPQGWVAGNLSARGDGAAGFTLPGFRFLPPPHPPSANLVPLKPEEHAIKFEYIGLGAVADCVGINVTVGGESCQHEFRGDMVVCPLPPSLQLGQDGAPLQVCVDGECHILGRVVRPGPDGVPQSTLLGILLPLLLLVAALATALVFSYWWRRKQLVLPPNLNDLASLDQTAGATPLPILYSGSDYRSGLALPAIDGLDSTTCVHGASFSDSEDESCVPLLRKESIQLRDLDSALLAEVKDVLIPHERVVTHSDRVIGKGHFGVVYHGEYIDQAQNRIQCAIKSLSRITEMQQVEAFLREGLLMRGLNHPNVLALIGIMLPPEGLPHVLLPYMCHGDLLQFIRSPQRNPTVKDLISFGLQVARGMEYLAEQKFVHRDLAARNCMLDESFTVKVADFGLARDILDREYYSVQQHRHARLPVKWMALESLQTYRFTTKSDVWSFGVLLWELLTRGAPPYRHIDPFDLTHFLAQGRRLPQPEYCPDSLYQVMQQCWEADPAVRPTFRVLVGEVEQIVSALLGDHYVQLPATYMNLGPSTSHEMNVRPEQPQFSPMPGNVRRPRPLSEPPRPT

The IC50 is the concentration at which inhibition is half-maximal. Lower therefore signals greater potency in that assay. In the case of `Nc1nccc(Oc2c(F)cc(NC(=O)c3cnn(-c4ccccc4)c3C(F)(F)F)cc2F)c1Cl` [Example 1, N-(4-((2-amino-3-chloropyridin-4-yl)oxy)-3,5-difluorophenyl)-1-phenyl-5-(trifluoromethyl)-1H-pyrazole-4-carboxamide], the figures for the IC50 in experiment [1] and in experiment [2] were less than 0.05 µM and more than 5 µM, respectively.
In the case of `Nc1nccc(Oc2c(F)cc(NC(=O)c3cnn(-c4ncccn4)c3C(F)(F)F)cc2F)c1Cl` [Example 2, N-(4-((2-amino-3-chloropyridin-4-yl)oxy)-3,5-difluorophenyl)-1-(pyrimidin-2-yl)-5-(trifluoromethyl)-1H-pyrazole-4-carboxamide], the IC50 in experiment [1] was less than 0.05 µM; in experiment [2], 0.5 to 5 µM.
On the same counts, the results for `Nc1nccc(Oc2c(F)cc(NC(=O)c3cnn(-c4cccnn4)c3C(F)(F)F)cc2F)c1Cl` [Example 3, N-(4-((2-amino-3-chloropyridin-4-yl)oxy)-3,5-difluorophenyl)-1-(pyridazin-3-yl)-5-(trifluoromethyl)-1H-pyrazole-4-carboxamide] are less than 0.05 µM and 0.5 to 5 µM.
Consider `CCc1c(C(=O)Nc2cc(F)c(Oc3ccnc(N)c3Cl)c(F)c2)cnn1-c1ncccc1F` [Example 4, N-(4-((2-amino-3-chloropyridin-4-yl)oxy)-3,5-difluorophenyl)-5-ethyl-1-(3-fluoropyridin-2-yl)-1H-pyrazole-4-carboxamide], for which the half-inhibitory concentration (IC50) in experiment [1] is less than 0.05 µM; in experiment [2], more than 5 µM.
As to `Nc1nccc(Oc2cc(F)c(NC(=O)c3cnn(-c4ncccc4F)c3C(F)(F)F)cc2F)c1Cl` [Example 5, N-(4-((2-amino-3-chloropyridin-4-yl)oxy)-2,5-difluorophenyl)-1-(3-fluoropyridin-2-yl)-5-(trifluoromethyl)-1H-pyrazole-4-carboxamide], the figures for the IC50 in experiment [1] and in experiment [2] were less than 0.05 µM and more than 5 µM, respectively.
On the same counts, the results for `Nc1nccc(Oc2cc(F)c(NC(=O)c3cnn(-c4ccccc4)c3C(F)(F)F)cc2F)c1Cl` [Example 6, N-(4-((2-amino-3-chloropyridin-4-yl)oxy)-2,5-difluorophenyl)-1-phenyl-5-(trifluoromethyl)-1H-pyrazole-4-carboxamide] are 0.05 to 0.5 µM and more than 5 µM.
On the same counts, the results for `Nc1nccc(Oc2cc(F)c(NC(=O)c3cnn(-c4ncccc4F)c3C(F)(F)F)c(F)c2)c1Cl` [Example 7, N-(4-((2-amino-3-chloropyridin-4-yl)oxy)-2,6-difluorophenyl)-1-(3-fluoropyridin-2-yl)-5-(trifluoromethyl)-1H-pyrazole-4-carboxamide] are 0.05 to 0.5 µM and more than 5 µM.
On the same counts, the results for `Nc1nccc(Oc2cc(F)c(NC(=O)c3cnn(-c4ccccc4)c3C(F)(F)F)c(F)c2)c1Cl` [Example 8, N-(4-((2-amino-3-chloropyridin-4-yl)oxy)-2,6-difluorophenyl)-1-phenyl-5-(trifluoromethyl)-1H-pyrazole-4-carboxamide] are 0.5 to 5 µM and more than 5 µM.
`Nc1ncnc(Oc2c(F)cc(NC(=O)c3cnn(-c4ccccc4)c3C(F)(F)F)cc2F)c1Cl` [Example 9, N-(4-((6-amino-5-chloropyrimidin-4-yl)oxy)-3,5-difluorophenyl)-1-phenyl-5-(trifluoromethyl)-1H-pyrazole-4-carboxamide]: the IC50 is less than 0.05 µM in experiment [1] and more than 5 µM in experiment [2].
On the same counts, the results for `Nc1ncnc(Oc2c(F)cc(NC(=O)c3cnn(-c4ncccc4F)c3C(F)(F)F)cc2F)c1Cl` [Example 10, N-(4-((6-amino-5-chloropyrimidin-4-yl)oxy)-3,5-difluorophenyl)-1-(3-fluoropyridin-2-yl)-5-(trifluoromethyl)-1H-pyrazole-4-carboxamide] are less than 0.05 µM and 0.5 to 5 µM.
On the same counts, the results for `Nc1ncnc(Oc2c(F)cc(NC(=O)c3cnn(-c4ncccc4Cl)c3C(F)(F)F)cc2F)c1Cl` [Example 11, N-(4-((6-amino-5-chloropyrimidin-4-yl)oxy)-3,5-difluorophenyl)-1-(3-chloropyridin-2-yl)-5-(trifluoromethyl)-1H-pyrazole-4-carboxamide] are less than 0.05 µM and 0.5 to 5 µM.
As for `Nc1ncnc(Oc2c(F)cc(NC(=O)c3cnn(-c4ncccn4)c3C(F)(F)F)cc2F)c1Cl` [Example 12, N-(4-((6-amino-5-chloropyrimidin-4-yl)oxy)-3,5-difluorophenyl)-1-(pyrimidin-2-yl)-5-(trifluoromethyl)-1H-pyrazole-4-carboxamide], the figures for the IC50 in experiment [1] and in experiment [2] were less than 0.05 µM and 0.5 to 5 µM, respectively.
On the same counts, the results for `Nc1nccc(Oc2c(F)cc(NC(=O)c3cnn(-c4ccccc4)c3C(F)(F)F)cc2F)c1I` [Example 13, N-(4-((2-amino-3-iodopyridin-4-yl)oxy)-3,5-difluorophenyl)-1-phenyl-5-(trifluoromethyl)-1H-pyrazole-4-carboxamide] are less than 0.05 µM and 0.5 to 5 µM.
On the same counts, the results for `Nc1nccc(Oc2c(F)cc(NC(=O)c3cnn(-c4ccccn4)c3C(F)(F)F)cc2F)c1I` [Example 14, N-(4-((2-amino-3-iodopyridin-4-yl)oxy)-3,5-difluorophenyl)-1-(pyridin-2-yl)-5-(trifluoromethyl)-1H-pyrazole-4-carboxamide] are less than 0.05 µM and more than 5 µM.
On the same counts, the results for `Nc1nccc(Oc2c(F)cc(NC(=O)c3cnn(-c4ncccc4F)c3C(F)(F)F)cc2F)c1I` [Example 15, N-(4-((2-amino-3-iodopyridin-4-yl)oxy)-3,5-difluorophenyl)-1-(3-fluoropyridin-2-yl)-5-(trifluoromethyl)-1H-pyrazole-4-carboxamide] are less than 0.05 µM and 0.05 to 0.5 µM.
Take `Nc1nccc(Oc2c(F)cc(NC(=O)c3cnn(-c4ncccc4Cl)c3C(F)(F)F)cc2F)c1I` [Example 16, N-(4-((2-amino-3-iodopyridin-4-yl)oxy)-3,5-difluorophenyl)-1-(3-chloropyridin-2-yl)-5-(trifluoromethyl)-1H-pyrazole-4-carboxamide]: the 50% inhibitory concentration (IC50) in experiment [1] was less than 0.05 µM; in experiment [2], 0.05 to 0.5 µM.
As to `Nc1nccc(Oc2c(F)cc(NC(=O)c3cnn(-c4cccnn4)c3C(F)(F)F)cc2F)c1I` [Example 17, N-(4-((2-amino-3-iodopyridin-4-yl)oxy)-3,5-difluorophenyl)-1-(pyridazin-3-yl)-5-(trifluoromethyl)-1H-pyrazole-4-carboxamide], the IC50 in experiment [1] is less than 0.05 µM; in experiment [2], 0.5 to 5 µM.
On the same counts, the results for `Nc1nccc(Oc2c(F)cc(NC(=O)c3cnn(-c4ncccn4)c3C(F)(F)F)cc2F)c1I` [Example 18, N-(4-((2-amino-3-iodopyridin-4-yl)oxy)-3,5-difluorophenyl)-1-(pyrimidin-2-yl)-5-(trifluoromethyl)-1H-pyrazole-4-carboxamide] are less than 0.05 µM and 0.5 to 5 µM.
Consider `Nc1nccc(Oc2c(F)cc(NC(=O)c3cnn(-c4ccccc4)c3C(F)(F)F)cc2F)c1C1CCOCC1` [Example 19, N-(4-((2-amino-3-(tetrahydro-2H-pyran-4-yl)pyridin-4-yl)oxy)-3,5-difluorophenyl)-1-phenyl-5-(trifluoromethyl)-1H-pyrazole-4-carboxamide], for which the IC50 in experiment [1] is less than 0.05 µM; in experiment [2], 0.5 to 5 µM.
